Laboratory results as given in patent publication US11497819B2, “PSMA ligands for imaging and endoradiotherapy” (priority 2017, dated 2022).
“And” between values parts separate entries of the source, which are not always exact repeats. Identical values can stand only once. Like-named read-outs stand apart in the source and are kept apart here.

Tests used:
[1] = system: LNCaP cells; assay: Internalization into LNCaP cells, relative cellular uptake to ([^125I]I-BA)KuE; assay type: cell-based; conditions: c = 1.0 nM ^177Lu-labeled inhibitor, 37° C., 60 min, corrected for non-specific binding (10 μM 2-PMPA), mean ± SD (n = 3)
Method: PSMA-positive LNCAP cells (300265; Cell Lines Service GmbH) were cultivated in Dulbecco modified Eagle medium/Nutrition Mixture F-12 (1/1) (DMEM-F12, Biochrom) supplemented with fetal calf serum (FCS) (10%, Biochrom) and kept at 37° C. in a humidified CO2 atmosphere (5%). One day (24 h±2 h) prior to all experiments with LNCaP cells, the cultivated cells were harvested using a mixture of trypsin/ethylendiaminetetraacetate (0.05%/0.02%) and PBS and centrifuged. After centrifugation, the supernatant was disposed and the cell pellet resuspended in culture medium. Afterwards, cells were counted with a hemocytometer (Neubauer) and seeded in 24-well plates.
Subsequent to the removal of the culture medium, the cells were washed once with DMEM-F12-solution (500 μL, 5% BSA) and left to equilibrate for at least 15 min at 37° C. in DMEM-F12-solution (200 μL, 5% BSA). Afterwards, each well was treated with either DMEM-F12-solution (25 μL, 5% BSA) or 2-PMPA-solution (25 μL, 100 μm) for blockade. […] The experiment was terminated by placing the 24-well plate on ice for 3 min and the consecutive removal of the medium. Each well was rinsed with HBSS (250 μL) and the fractions from these first two steps combined, representing the amount of free radioligand. Removal of surface bound activity was accomplished by incubation of the cells with ice-cold 2-PMPA-solution (250 μL, 10 μm in PBS) for 5 min and subsequent rinsing with ice-cold PBS (250 μL). The internalized activity was determined through incubation of the cells in NaOH (250 μL, 1.0 m) and the combination with the fraction of the subsequent washing step with again NaOH (250 μL, 1.0 m). Each experiment (control and blockade) was performed in triplicate for each time point. Free, surface bound and internalized activity was quantified in a γ-counter.

[2] = Lipophilicity, logP in n-octanol/PBS of radiolabeled PSMA inhibitors; assay type: physicochemical; conditions: pH 7.4
Method: The radiolabeled PSMA inhibitor (0.5 to 1.0 MBq) dissolved in PBS (500 μL, pH=7.4), was added to n-octanol (500 μL) in a reaction vial (1.5 mL), which was rigorously vortexed for 3 min (n=6). For quantitative phase separation, the mixture was centrifuged at 6,000 g for 5 min (Biofuge 15, Heraus Sepatech, Osterode, Germany). The activity from samples of each phase (100 μL) were measured in a γ-counter to obtain the log P(o/w) value.

[3] = target: T1, HSA (Homo sapiens, UniProt P02768); assay: HSA binding on Chiralpak HSA column; assay type: in vitro ADME
T1 construct: purchased Daicel Chemical Industries / Chiral Technologies Europe (Illkirch, France)
T1 sequence (P02768 25-609): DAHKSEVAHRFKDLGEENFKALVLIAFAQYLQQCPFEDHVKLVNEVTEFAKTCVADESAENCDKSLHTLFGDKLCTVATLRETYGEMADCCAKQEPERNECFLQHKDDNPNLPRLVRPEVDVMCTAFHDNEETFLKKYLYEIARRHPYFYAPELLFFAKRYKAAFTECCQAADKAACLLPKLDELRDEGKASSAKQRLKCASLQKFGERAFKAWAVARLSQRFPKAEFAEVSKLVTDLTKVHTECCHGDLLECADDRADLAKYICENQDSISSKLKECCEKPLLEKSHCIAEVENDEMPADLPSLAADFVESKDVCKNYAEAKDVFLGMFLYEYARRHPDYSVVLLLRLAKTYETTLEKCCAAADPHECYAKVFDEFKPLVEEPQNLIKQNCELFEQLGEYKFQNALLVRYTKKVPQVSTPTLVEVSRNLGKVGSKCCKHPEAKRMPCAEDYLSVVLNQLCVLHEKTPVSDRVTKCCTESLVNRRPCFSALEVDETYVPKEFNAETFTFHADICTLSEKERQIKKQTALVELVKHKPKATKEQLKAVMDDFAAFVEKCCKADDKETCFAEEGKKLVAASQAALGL
Method: HSA binding experiments were performed as previously described. […] For each run, 10 μL of the solution containing the inhibitor was injected into the RP-HPLC system and the retention time measured. […] Non-linear regression was established with OriginPro 2016G.

[4] = system: LNCaP-tumor xenograft; assay: Biodistribution in LNCaP-tumor xenograft bearing CB-17 SCID mice; assay type: in vivo; conditions: male, CB-17 SCID, mouse, in vivo
Method: All animal experiments were carried out in accordance with the general animal welfare regulations in Germany (Deutsches Tierschutzgesetz, approval #55.2-1-54-2532-71-13). For the tumor model, LNCaP cells (approx. 10^7 cells) were suspended in serum-free DMEM-F12 medium and Matrigel (1/1; v/v) (BD Biosciences, Germany) and inoculated onto the right shoulder of male, 6 to 8 weeks old CB-17 SCID mice (Charles River Laboratories, Sulzfeld, Germany). Animals were used after the tumor size reached 4 to 8 mm in diameter for experiments.

[5] = distribution coefficient in n-octanol/PBS, radiolabeled inhibitor, mean ± SD (n = 6), read-out: logP

adrenal gland ([4]; 1 h) | blood ([4]; 1 h) | bone ([4]; 1 h) | brain ([4]; 1 h) | heart ([4]; 1 h) | intestine ([4]; 1 h) | liver ([4]; 1 h) | lung ([4]; 1 h) | muscle ([4]; 1 h) | pancreas ([4]; 1 h) | spleen ([4]; 1 h) | stomach ([4]; 1 h) | tumor ([4]; 1 h) | tumor/blood ([4]; 1 h) | tumor/kidney ([4]; 1 h) | tumor/muscle ([4]; 1 h) | logP [2] | Structure (SMILES) | Internalization [1] | logP [2, 5] | also measured
 |  |  |  |  |  |  |  |  |  |  |  |  |  |  |  |  | O=C(O)CC[C@H](NC(=O)N[C@@H](CCC(=O)NC(CCCNC(=O)CCC(=O)NCCCC[C@@H](NC(=O)[C@@H](Cc1ccc2ccccc2c1)NC(=O)[C@@H](Cc1ccc(O)cc1)NC(=O)CCC(C(=O)O)N1CCN(CC(=O)O)CCN(CC(=O)O)CCN(CC(=O)O)CC1)C(=O)O)C(=O)O)C(=O)O)C(=O)O (stereo partly shown) [PSMA-46, DOTAGA-y-2-nal-k(Suc-N^5-orn-C^4-EuE)] | 216.2 ± 9.2% | -4.21 ± 0.08 | HSA (albumin binding) ([3]; after logarithmic plotting and calibration (n = 1)): 57.7%
 |  |  |  |  |  |  |  |  |  |  |  |  |  |  |  |  | O=C(O)CC[C@H](NC(=O)N[C@@H](CCC(=O)NC(CCCNC(=O)c1ccc(NC(=O)CC[C@@H](NC(=O)[C@@H](Cc2ccc3ccccc3c2)NC(=O)[C@@H](Cc2ccc(O)cc2)NC(=O)[C@H](CNC(=O)CCC(C(=O)O)N2CCN(CC(=O)O)CCN(CC(=O)O)CCN(CC(=O)O)CC2)NC(=O)c2ccc([N+](=O)[O-])cc2[N+](=O)[O-])C(=O)O)cc1)C(=O)O)C(=O)O)C(=O)O (stereo partly shown) [PSMA-65, 2,4-DNBA-Dap(DOTAGA)y-2-nal-e(Abz-N^5-orn-C^4-EuE)] |  | -4.15 ± 0.08 | Internalization ([1]; listed as [^nat/177Lu]PSMA-65): 340.2 ± 19.9% and 340.2 ± 18.9%; HSA (albumin binding) ([3]; after logarithmic plotting and calibration (n = 1), listed as [^nat/177Lu]PSMA-65): 98.7%
5.66 ± 1.66 % ID/g | 0.46 ± 0.06 % ID/g | 0.29 ± 0.14 % ID/g | 0.03 ± 0.01 % ID/g | 0.57 ± 0.11 % ID/g | 0.30 ± 0.08 % ID/g | 0.99 ± 0.19 % ID/g | 1.47 ± 0.25 % ID/g | 0.17 ± 0.02 % ID/g | 0.56 ± 0.07 % ID/g | 20.53 ± 6.79 % ID/g | 0.35 ± 0.10 % ID/g | 8.21 ± 0.23 % ID/g | 17.8 | 0.05 | 48.3 | -4.01 ± 0.11 | Nc1ccc(C[C@@H](NC(=O)CCC(C(=O)O)N2CCN(CC(=O)O)CCN(CC(=O)O)CCN(CC(=O)O)CC2)C(=O)N[C@H](Cc2ccc(O)cc2)C(=O)N[C@H](Cc2ccc3ccccc3c2)C(=O)N[C@H](CCCCNC(=O)CCC(=O)NCCCC(NC(=O)CC[C@H](NC(=O)N[C@@H](CCC(=O)O)C(=O)O)C(=O)O)C(=O)O)C(=O)O)cc1 (stereo in doubt) [PSMA-49, DOTAGA-F(4-NH2)y-2-nal-k(Suc-N^5-orn-C^4-EuE)] | 245.0 ± 4.2% |  | 
1.92 ± 0.80 % ID/g | 0.52 ± 0.03 % ID/g | 0.30 ± 0.08 % ID/g | 0.03 ± 0.01 % ID/g | 0.58 ± 0.06 % ID/g | 0.49 ± 0.25 % ID/g | 0.37 ± 0.04 % ID/g | 0.87 ± 0.11 % ID/g | 0.12 ± 0.03 % ID/g | 0.18 ± 0.05 % ID/g | 4.62 ± 1.81 % ID/g | 0.51 ± 0.2 % ID/g | 8.00 ± 0.78 % ID/g | 15.4 | 0.08 | 66.7 | -4.12 ± 0.05 | Nc1ccc(C[C@H](NC(=O)CCC(C(=O)O)N2CCN(CC(=O)O)CCN(CC(=O)O)CCN(CC(=O)O)CC2)C(=O)N[C@H](Cc2ccc(O)cc2)C(=O)N[C@H](Cc2ccc3ccccc3c2)C(=O)N[C@H](CCCCNC(=O)[C@@H](CC(=O)NCCC[C@@H](NC(=O)CC[C@H](NC(=O)N[C@@H](CCC(=O)O)C(=O)O)C(=O)O)C(=O)O)NC(=O)c2cc(C(=O)O)cc(C(=O)O)c2)C(=O)O)cc1 (stereo partly shown) [PSMA-62, DOTAGA-F(4-NH2)y-2-nal-k(d[N^5-orn-C^4-EuE]-TMA)] |  |  | adrenal g. ([4]; 24 h): 0.04 ± 0.02 % ID/g; blood ([4]; 24 h): 0.004 ± 0.001 % ID/g; bone ([4]; 24 h): 0.04 ± 0.006 % ID/g; brain ([4]; 24 h): 0.01 ± 0.006 % ID/g; heart ([4]; 24 h): 0.02 ± 0.01 % ID/g; intestine ([4]; 24 h): 0.03 ± 0.02 % ID/g; liver ([4]; 24 h): 0.17 ± 0.07 % ID/g; lung ([4]; 24 h): 0.03 ± 0.02 % ID/g; muscle ([4]; 24 h): 0.007 ± 0.001 % ID/g; pancreas ([4]; 24 h): 0.01 ± 0.002 % ID/g; spleen ([4]; 24 h): 0.09 ± 0.06 % ID/g; stomach ([4]; 24 h): 0.03 ± 0.01 % ID/g; t/blood ([4]; 24 h): 1925.0; t/kidney ([4]; 24 h): 1.5; t/liver ([4]; 24 h): 45.3; t/muscle ([4]; 24 h): 1100.0; tumor ([4]; 24 h): 7.70 ± 1.35 % ID/g; Internalization ([1]; listed as [^177Lu]PSMA-62): 343.9%; Internalization ([1]; listed as [^nat/177Lu]PSMA-62): 343.9 ± 6.0%; HSA (albumin binding) ([3]; human, 0.5 mg/mL): >91.0%
